The values that follow come from ChEMBL document CHEMBL1150006, “Synthesis of new imidazo[1,2-b]pyridazine isosteres of potent imidazo[4,5-b]pyridine angiotensin II antagonists” (Bioorg Med Chem Lett, 1994).

In assay [1] the target is T1, Type-1 angiotensin II receptor (Oryctolagus cuniculus, UniProt P34976).
T1 sequence (P34976 whole entry): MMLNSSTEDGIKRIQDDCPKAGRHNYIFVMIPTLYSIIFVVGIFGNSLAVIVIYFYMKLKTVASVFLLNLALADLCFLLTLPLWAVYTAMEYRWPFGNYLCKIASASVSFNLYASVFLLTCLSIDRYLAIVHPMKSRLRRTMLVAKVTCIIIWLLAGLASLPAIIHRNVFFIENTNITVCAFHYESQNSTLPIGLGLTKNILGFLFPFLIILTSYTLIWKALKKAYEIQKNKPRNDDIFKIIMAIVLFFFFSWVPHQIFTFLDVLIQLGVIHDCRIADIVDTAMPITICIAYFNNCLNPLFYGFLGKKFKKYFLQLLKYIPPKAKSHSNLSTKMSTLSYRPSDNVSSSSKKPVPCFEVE
The experiment in a line: In vitro binding affinity evaluated by its ability to displace the specific binding ligand 125I-SAR1, Ile8-AII from Angiotensin II receptor, type 1 in rabbit aorta membrane. The class given is cell membranes.

The target of assay [2] is T2, Type-2 angiotensin II receptor (Rattus norvegicus, UniProt P35351).
T2 sequence (P35351 whole entry): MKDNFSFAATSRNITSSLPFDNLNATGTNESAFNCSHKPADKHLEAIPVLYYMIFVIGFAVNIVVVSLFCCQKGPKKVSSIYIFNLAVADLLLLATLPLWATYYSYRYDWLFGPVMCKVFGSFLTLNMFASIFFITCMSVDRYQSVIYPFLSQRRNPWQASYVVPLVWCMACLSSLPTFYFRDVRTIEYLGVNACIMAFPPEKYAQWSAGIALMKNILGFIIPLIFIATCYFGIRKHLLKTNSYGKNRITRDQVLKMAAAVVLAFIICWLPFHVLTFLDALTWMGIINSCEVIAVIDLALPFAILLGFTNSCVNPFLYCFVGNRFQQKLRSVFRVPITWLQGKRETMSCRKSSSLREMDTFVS
Nature of the assay: In vitro binding affinity at AT2 receptor determined by its ability to displace the specific binding ligand [125I]-Sar1, Ile8-AII from rat brain membrane.

Assay [3] deals with Rattus norvegicus. Nature of the assay: Dose required for more than 90% maximal inhibition of blood pressure response at iv bolus administration in conscious normotensive rats. Type of assay: functional.
For assay [4], the species on record is Rattus norvegicus. Nature of the assay: Percent inhibition exceeded duration of 6 hours. The class given is functional.

What is called IC50 is the concentration that inhibits the measured activity by half. Read a low IC50 as greater potency. The compound `CCc1nc2c(C)cc(C)nn2c1Cc1ccc(-c2ccccc2C(=O)O)cc1` had an IC50 in assay [1] of 83 nM.
Consider `CCc1nc2c(C)cc(C)nn2c1Cc1ccc(-c2ccccc2NS(=O)(=O)C(F)(F)F)cc1`, for which the IC50 in assay [1] was 1.7 nM.
With `CCc1nc2c(C)cc(C)nn2c1Cc1ccc(-c2ccccc2S(=O)(=O)NC(=O)c2ccccc2)cc1`, the IC50 in assay [1] stood at 0.8 nM.
As usually defined, the Inhibition is the percentage by which the read-out fell short of the control. Lower therefore signals a weak effect. Consider `CCc1nc2c(C)cc(C)nn2c1Cc1ccc(-c2ccccc2-c2nn[nH]n2)cc1`, for which the IC50 in assay [2] was more than 10 nM; in assay [1], 5.7 nM. Further, the Dose with Rattus norvegicus [3] was determined as 1 mg/kg. For the same compound, the Inhibition in the assay listed under Rattus norvegicus [4] is more than 30%.
